# Values joined by “and” are separate entries in the source; they are usually repeats but may differ in a detail not shown here. Identical values can stand only once.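 Values below derive from 48-hour exposures of cells grown in 96-well plates, with endpoints linearly interpolated between the two concentrations bracketing the appropriate inhibition level. GI50: concentration for 50% inhibition of growth. TGI: total growth inhibition.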
# Tests used:
# Experiment in all cases: NCI anticancer screen, dose series, 48 h
# [1] = test system: HT29 colon
# [2] = test system: SK-OV-3 ovarian
# [3] = test system: MDA-N
# [4] = test system: SR leukemia
# [5] = test system: LOX IMVI melanoma
# [6] = test system: OVCAR-3 ovarian
# [7] = test system: UACC-62 melanoma
# [8] = test system: HS 578T breast
# [9] = test system: MDA-MB-231 breast
# [10] = test system: HOP-92 NSCLC
Compound,TGI [1],TGI [2],TGI [3],TGI [4],TGI [5],TGI [6],TGI [7],TGI [8],TGI [9],TGI [10],GI50 [1],GI50 [2],GI50 [3],GI50 [4],GI50 [5],GI50 [6],GI50 [7],GI50 [9]
C/C(=C/CC[C@]1(CO)CC[C@]2(C)[C@H](CC[C@@H]3[C@@]4(C)CC[C@H](OC5OC(CO)C(O)C(O)C5OC5OC(CO)C(O)C(O)C5O)C(C)(C)[C@@H]4CC[C@]32C)[C@H]1O)CO (stereo partly drawn),> 100 µM,> 100 µM,> 100 µM,> 100 µM,> 100 µM,> 100 µM,> 100 µM,> 100 µM,> 100 µM,> 100 µM,,,,,,,,
Cc1cccc(CC(Cc2ccc(C)cc2C(=O)O)C(=O)O)c1 (stereo not drawn),> 100 µM,> 100 µM,> 100 µM,> 100 µM,> 100 µM,> 100 µM,96.5 µM,> 100 µM,> 100 µM,> 100 µM,,,,,,,,
Cc1cc2nc3c(C#N)c4c(c(-c5ccc(Cl)cc5)n3c2cc1C)CCC4,40.5 µM,34.1 µM,88 µM,45.7 µM,90.6 µM,40.7 µM,33.9 µM,47.9 µM,49.1 µM,50.7 µM,,,,,,,,
COC(=O)Nc1nc2ccc(S(=O)(=O)N3CCOCC3)cc2[nH]1,> 100 µM,> 100 µM,> 100 µM,> 100 µM,> 100 µM,> 100 µM,> 100 µM,> 100 µM,> 100 µM,> 100 µM,,,,,,,,
Cc1ccc2c(c1)nc1n2C(N)=Nc2ccccc2S1,> 100 µM,> 100 µM,> 100 µM,> 100 µM,> 100 µM,> 100 µM,> 100 µM,> 100 µM,> 100 µM,> 100 µM,,,,,,,,
O=C1CSC(c2ccc(Cl)cc2Cl)N1c1ccc(Oc2ccc(Cl)cc2)c(Cl)c1 (stereo not drawn),30.6 µM,85.6 µM,98 µM,42.8 µM,36.6 µM,65.9 µM,53.5 µM,41.9 µM,45.2 µM,49.4 µM,,,,,,,,
OC1(c2ccc(Cl)cc2)c2ccccc2-c2nc3ccccc3n21 (stereo not drawn),> 100 µM,> 100 µM,> 100 µM,> 100 µM,> 100 µM,> 100 µM,> 100 µM,> 100 µM,> 100 µM,> 100 µM,,,,,,,,
O=C(SCc1cccc2ccccc12)c1ccc(Cl)cc1,> 100 µM,> 100 µM,> 100 µM,> 100 µM,> 100 µM,> 100 µM,> 100 µM,> 100 µM,> 100 µM,> 100 µM,,,,,,,,
CC1OC(OC2C(O[C@H]3CC[C@@]4(C)C(=CC[C@H]5[C@@H]6C[C@@H]7O[C@]8(CC[C@@H](C)CO8)[C@@H](C)[C@@H]7[C@@]6(C)CC[C@@H]54)C3)OC(CO)C(O)C2O)C(O)C(O)C1O (stereo partly drawn),2.37 µM,6.14 µM,6.54 µM,6.71 µM,3.49 µM,6.65 µM,2.7 µM,3.85 µM,3.14 µM,6.17 µM,,,,,,,,
CC(C)=CC[C@]12CCN(C)[C@H]1N(S(=O)(=O)c1ccccc1)c1ccccc12,> 100 µM,> 100 µM,> 100 µM,> 100 µM,> 51.6 µM,> 74.4 µM,> 62 µM,> 90 µM,> 100 µM,> 79.9 µM,,,,,,,,
CC(=O)OCC1OC(n2c(Br)nc3c2c(=O)n(C)c(=O)n3C)C(OC(C)=O)C1OC(C)=O (stereo not drawn),> 100 µM,> 100 µM,> 100 µM,> 100 µM,> 100 µM,> 100 µM,> 100 µM,> 100 µM,> 100 µM,> 100 µM,,,,,,,,
NCCN1C(=O)c2ccccc2C1c1ccc(Cl)cc1 (stereo not drawn),> 100 µM,> 100 µM,> 100 µM,> 100 µM,> 100 µM,> 100 µM,> 100 µM,> 100 µM,> 100 µM,> 100 µM,,,,,,,,
Cc1c2c(n(CC(c3ccccc3)c3ccccc3)c1C)NN=C(C#N)S2(=O)=O,> 100 µM,> 100 µM,> 100 µM,> 100 µM,> 100 µM,> 100 µM,> 100 µM,> 100 µM,> 100 µM,> 100 µM,,,,,,,,
c1ccc2c(c1)cc1n2CCc2c-1[nH]c1ccccc21,> 10 µM,> 10 µM,> 10 µM,> 10 µM,> 10 µM,> 10 µM,> 10 µM,> 10 µM,> 10 µM,> 10 µM,,,,,,,,
COc1cc(OC)c2c(c1)OC(c1cccnc1)C(c1ccccc1)C2=O (stereo not drawn),> 100 µM,> 100 µM,> 100 µM,> 100 µM,> 100 µM,> 100 µM,> 100 µM,> 100 µM,> 100 µM,> 100 µM,,,,,,,,
CC(=O)OCC1OC(n2c(S)c(C#N)c(-c3ccccc3)c(C#N)c2=O)C(OC(C)=O)C(OC(C)=O)C1OC(C)=O (stereo not drawn),> 100 µM and 52.8 µM,> 100 µM and 96.6 µM,> 100 µM and 86.5 µM,> 100 µM and 57.7 µM,> 100 µM and 31 µM,> 100 µM and 36.9 µM,> 100 µM and 59.5 µM,> 100 µM,> 100 µM and 83.7 µM,59.9 µM and 99.2 µM,> 100 µM and 24.3 µM,99.5 µM and 32.1 µM,> 100 µM and 28.3 µM,> 100 µM and 32.1 µM,> 100 µM and 17.2 µM,> 100 µM and 19.5 µM,82.3 µM and 23.2 µM,> 71.9 µM and 22.1 µM
COc1ccccc1C(=O)NCC1CCCN2CCCCC12 (stereo not drawn),> 100 µM,> 100 µM,> 100 µM,> 100 µM,> 100 µM,> 100 µM,> 100 µM,> 100 µM,> 100 µM,> 100 µM,,,,,,,,

Compound,TGI [1],TGI [2],TGI [3],TGI [4],TGI [5],TGI [6],TGI [7],TGI [8],TGI [9],TGI [10],GI50 [1],GI50 [2],GI50 [3],GI50 [4],GI50 [5],GI50 [6],GI50 [7],GI50 [9]
COC(=O)C1OC(O[C@H]2CC[C@]3(C)[C@H]4CC=C5[C@@H]6CC(C)(C)CC[C@]6(C(=O)OC6OCC(O)C(O)C6OC6OC(C)C(OC7OCC(O)C(O)C7O)C(OC7OCC(O)(CO)C7O)C6O)[C@H](O)C[C@@]5(C)[C@]4(C)CC[C@H]3C2(C)C)C(O)C(O)C1O (stereo partly drawn),7.16 µM,24.9 µM,4.14 µM,6.37 µM,20.1 µM,23.2 µM,6.08 µM,28.2 µM,7.56 µM,3.94 µM,,,,,,,,
O=C1C(c2c(O)[nH]c3ccc(Br)cc23)=Nc2ccc(Br)cc21,> 100 µM,90.8 µM,63 µM,> 100 µM,> 100 µM,> 100 µM,> 100 µM,> 100 µM,79.5 µM,> 100 µM,,,,,,,,
Nc1nc(Cl)c(Cl)c(NCC2(O)CCC2)n1,> 100 µM,> 100 µM,> 100 µM,> 100 µM,> 100 µM,> 100 µM,> 100 µM,> 100 µM,> 100 µM,> 100 µM,,,,,,,,
CCC(C)C1=C(O)[N+]2([O-])Oc3ccc(-c4c(O)c(O)c(-c5ccc(OC(C)=O)cc5)c(OC(C)=O)c4OC(C)=O)cc3OC2(C(C)CC)C(=O)N1O (stereo not drawn),> 50 µM,> 50 µM,> 50 µM,> 50 µM,> 50 µM,> 50 µM,> 50 µM,> 50 µM,> 50 µM,> 50 µM,,,,,,,,
CC1=CP(=O)(c2c(C(C)C)cc(C(C)C)cc2C(C)C)CCC1Cl (stereo not drawn),41.8 µM,36.3 µM,46.7 µM,23 µM,47.2 µM,23.4 µM,26.1 µM,> 100 µM,30.7 µM,31 µM,,,,,,,,
C/C(=N\O)c1cccc[n+]1Cc1ccccc1,> 100 µM,> 100 µM,> 100 µM,> 100 µM,> 100 µM,> 100 µM,> 100 µM,> 100 µM,> 100 µM,> 100 µM,,,,,,,,
CN(C)c1ccc(/C=C/c2sc3ccccc3[n+]2C)cc1,11.8 µM and 12 µM,17.1 µM,7.36 µM,8.87 µM and 2.6 µM,6.87 µM and 3.34 µM,3.82 µM and 2.86 µM,17 µM and 5.87 µM,36.8 µM and 46.1 µM,10.1 µM and 33.8 µM,5.34 µM and 8.69 µM,2.71 µM and 1.14 µM,,,2.07 µM and 0.268 µM,2.34 µM and 1.11 µM,,3.87 µM and 1.48 µM,2 µM and 7.25 µM
O=C1CSC(c2cccc(Cl)c2)N1c1ccc(-c2ccc(-n3c(-c4ccccc4)nc4ccccc4c3=O)cc2)cc1 (stereo not drawn),> 100 µM,> 100 µM,> 100 µM,> 100 µM,> 100 µM,> 100 µM,> 100 µM,> 100 µM,> 100 µM,56.5 µM,,,,,,,,
COc1ccc(NCC(=O)Nn2c(-c3ccccc3)nc3ccccc3c2=O)cc1,> 100 µM,> 100 µM,> 100 µM,> 100 µM,44 µM,> 100 µM,32.3 µM,> 100 µM,84.4 µM,> 100 µM,,,,,,,,
CC1OC2OC3C(OCC(O)C3O)OC(=O)[C@]34CCC(C)(C)CC3C3=CCC5[C@@]6(C)C[C@H](O)[C@H](OC7OC(CO)C(O)C(O)C7OC7OCC(OC(=O)CC(C)(O)CC(=O)OC1C(O)C2O)C(O)C7O)[C@@](C)(CO)C6CC[C@@]5(C)[C@]3(C)CC4 (stereo partly drawn),10.4 µM,10.4 µM,13.8 µM,20.3 µM,21.7 µM,20.7 µM,14.4 µM,21.2 µM,20.6 µM,6.03 µM,,,,,,,,
O=C(O)[C@H](CCC[C@H]1C(=O)O[C@H](c2ccccc2)[C@H](c2ccccc2)N1C(=O)OCc1ccccc1)N[C@@H](c1ccccc1)[C@H](O)c1ccccc1,> 100 µM,> 100 µM,53.1 µM,52.3 µM,51.9 µM,48.4 µM,44.1 µM,58.9 µM,33.1 µM,49.5 µM,,,,,,,,
CC1(C)COC2=C(C1)C(=O)c1ccccc1C2=O,5.41 µM,3.72 µM,0.325 µM,8.37 µM,4.22 µM,2.06 µM,2.53 µM,7.95 µM,4 µM,3.85 µM,,,,,,,,
O=C(NO)NCCCl,> 100 µM,> 100 µM,> 100 µM,> 100 µM,> 100 µM,> 100 µM,> 100 µM,> 100 µM,> 100 µM,> 100 µM,,,,,,,,
O=C(O)/C=C/c1ccc2c(c1)CC1(Cc3ccccc3C1)C2,> 100 µM,> 100 µM,> 100 µM,62.3 µM,> 100 µM,> 100 µM,> 100 µM,> 100 µM,> 100 µM,> 100 µM,,,,,,,,
CCOC(=O)c1c(SC(=O)c2ccc(OC)cc2)n(-c2ccccc2)c(=S)n(-c2ccccc2)c1=O,> 100 µM,> 100 µM,> 100 µM,> 100 µM,> 100 µM,> 100 µM,> 100 µM,> 100 µM,81 µM,> 100 µM,,,,,,,,
COC1(CC[C@@H](C)COC2OC(CO)C(O)C(O)C2O)O[C@H]2C[C@H]3[C@@H]4CC=C5C[C@@H](OC6OC(CO)C(O)C(OC7OC(CO)C(O)C(O)C7O)C6OC6OC(C)C(O)C(O)C6O)CC[C@]5(C)[C@H]4CC[C@]3(C)[C@H]2[C@@H]1C (stereo partly drawn),> 23.1 µM,15 µM,23.1 µM,> 100 µM,7.03 µM,32.2 µM,> 35.7 µM,22.2 µM,16.5 µM,12.3 µM,,,,,,,,
Cc1ccc2nc(-c3ccc(C(C)(C)C)cc3)oc(=O)c2c1,38.3 µM,62.1 µM,67.5 µM,59.7 µM,32.3 µM,60.9 µM,49.3 µM,81.3 µM,54.2 µM,63.2 µM,,,,,,,,

# Reference: PubChem BioAssay (NCI)
